Data reported in the NIST ThermoML archive (doi:10.1021/je900596d).
Numbers after ± are expanded uncertainties.

Conditions: Liquid; for mass density: Vibrating tube method; for vapor or sublimation pressure: Closed cell (Static) method

FC(F)=C(F)C(F)(F)F [hexafluoropropene]
Conditions | mass density [kg/m3]
323.37 K, 3190.6 kPa | 1208.65 ± 1.2
323.37 K, 3233.2 kPa | 1209.26 ± 1.2
323.37 K, 3274 kPa | 1209.98 ± 1.2
323.37 K, 3319.3 kPa | 1210.67 ± 1.2
323.37 K, 3363.9 kPa | 1211.37 ± 1.2
323.37 K, 3409 kPa | 1212.2 ± 1.2
323.37 K, 3453.1 kPa | 1212.75 ± 1.2
323.37 K, 3494.3 kPa | 1213.56 ± 1.2
323.37 K, 3536.1 kPa | 1214.13 ± 1.2
323.37 K, 3576.1 kPa | 1214.83 ± 1.3
323.37 K, 3614.3 kPa | 1215.37 ± 1.2
323.37 K, 3655.5 kPa | 1215.99 ± 1.3
323.37 K, 3696.8 kPa | 1216.59 ± 1.2
323.37 K, 3734.8 kPa | 1217.22 ± 1.2
323.37 K, 3774.4 kPa | 1217.9 ± 1.2
323.37 K, 3814.2 kPa | 1218.51 ± 1.3
323.37 K, 3853.1 kPa | 1219.11 ± 1.2
323.37 K, 3890.4 kPa | 1219.71 ± 1.2
323.37 K, 3929.4 kPa | 1220.24 ± 1.3
323.37 K, 3968.3 kPa | 1220.84 ± 1.3
323.37 K, 4008.7 kPa | 1221.41 ± 1.3
323.37 K, 4049.2 kPa | 1222.01 ± 1.2
323.37 K, 4086.5 kPa | 1222.57 ± 1.3
323.37 K, 4125.9 kPa | 1223.19 ± 1.3
323.37 K, 4203.9 kPa | 1224.27 ± 1.2
323.37 K, 4242.8 kPa | 1224.81 ± 1.3
323.37 K, 4283.2 kPa | 1225.52 ± 1.3
323.37 K, 4323.7 kPa | 1226 ± 1.3
323.37 K, 4365 kPa | 1226.67 ± 1.3
323.37 K, 4405.1 kPa | 1227.17 ± 1.3
323.37 K, 4444.7 kPa | 1227.66 ± 1.2
323.37 K, 4485 kPa | 1228.31 ± 1.3
323.37 K, 4510.8 kPa | 1228.65 ± 1.3
323.37 K, 4561.5 kPa | 1229.42 ± 1.3
323.37 K, 4618.8 kPa | 1230.22 ± 1.3
323.37 K, 4671.5 kPa | 1230.85 ± 1.3
323.37 K, 4727.5 kPa | 1231.69 ± 1.3
323.37 K, 4782 kPa | 1232.28 ± 1.3
323.37 K, 4834 kPa | 1233.09 ± 1.3
323.37 K, 4887.1 kPa | 1233.93 ± 1.3
323.37 K, 4938.4 kPa | 1234.66 ± 1.3
323.37 K, 4991 kPa | 1235.13 ± 1.3
323.37 K, 5040.4 kPa | 1235.89 ± 1.3
323.37 K, 5097.9 kPa | 1236.56 ± 1.3
323.37 K, 5155.7 kPa | 1237.37 ± 1.3
323.37 K, 5211.3 kPa | 1238.02 ± 1.3
323.37 K, 5267.7 kPa | 1238.8 ± 1.3
323.37 K, 5326.8 kPa | 1239.64 ± 1.3
323.37 K, 5386 kPa | 1240.28 ± 1.3
323.37 K, 5440.9 kPa | 1241.12 ± 1.3
323.37 K, 5498.8 kPa | 1241.79 ± 1.3
323.37 K, 5518.2 kPa | 1242.1 ± 1.3
323.37 K, 5575.5 kPa | 1242.7 ± 1.3
323.37 K, 5631.7 kPa | 1243.39 ± 1.3
323.37 K, 5693 kPa | 1244.16 ± 1.3
323.37 K, 5751.8 kPa | 1244.98 ± 1.3
323.37 K, 5808.1 kPa | 1245.67 ± 1.3
323.37 K, 5864.8 kPa | 1246.37 ± 1.3
323.37 K, 5921.9 kPa | 1247.09 ± 1.3
323.37 K, 5977.9 kPa | 1247.78 ± 1.3
323.37 K, 6035 kPa | 1248.49 ± 1.3
323.37 K, 6091.4 kPa | 1249 ± 1.3
323.37 K, 6150.7 kPa | 1249.77 ± 1.3
323.37 K, 6208.1 kPa | 1250.43 ± 1.3
323.37 K, 6265.4 kPa | 1251.23 ± 1.3
323.37 K, 6323.2 kPa | 1251.69 ± 1.3
323.37 K, 6380.6 kPa | 1252.41 ± 1.3
323.37 K, 6438.3 kPa | 1253.13 ± 1.3
323.37 K, 6494.6 kPa | 1253.91 ± 1.3
323.37 K, 6551.8 kPa | 1254.4 ± 1.3
323.37 K, 6606.9 kPa | 1255.07 ± 1.3
323.37 K, 6663.3 kPa | 1255.73 ± 1.3
323.37 K, 6721.4 kPa | 1256.27 ± 1.3
323.37 K, 6837.9 kPa | 1257.77 ± 1.3
323.37 K, 6894.2 kPa | 1258.24 ± 1.3
323.37 K, 6952.1 kPa | 1259 ± 1.3
323.37 K, 7008.2 kPa | 1259.55 ± 1.3
323.37 K, 7067.2 kPa | 1260.31 ± 1.3
323.37 K, 7126.4 kPa | 1260.79 ± 1.3
323.37 K, 7183.6 kPa | 1261.47 ± 1.3
323.37 K, 7241.8 kPa | 1262.13 ± 1.3
323.37 K, 7299.5 kPa | 1262.75 ± 1.3
323.37 K, 7358.7 kPa | 1263.39 ± 1.3
323.37 K, 7415.2 kPa | 1263.98 ± 1.3
323.37 K, 7474.7 kPa | 1264.58 ± 1.3
323.37 K, 7531.4 kPa | 1265.19 ± 1.3
323.37 K, 7588.8 kPa | 1265.89 ± 1.3
323.37 K, 7648.3 kPa | 1266.42 ± 1.3
323.37 K, 7707.1 kPa | 1267.12 ± 1.3
323.37 K, 7764.7 kPa | 1267.63 ± 1.3
323.37 K, 7823.9 kPa | 1268.27 ± 1.3
323.37 K, 7882.7 kPa | 1268.85 ± 1.3
323.37 K, 7940.4 kPa | 1269.67 ± 1.3
323.37 K, 7995.5 kPa | 1270.08 ± 1.3
323.37 K, 8048 kPa | 1270.66 ± 1.3
323.37 K, 8125.8 kPa | 1271.24 ± 1.3
323.37 K, 8203.2 kPa | 1272.24 ± 1.3
323.37 K, 8277.9 kPa | 1272.98 ± 1.3
323.37 K, 8354.3 kPa | 1273.75 ± 1.3
323.37 K, 8407.9 kPa | 1274.11 ± 1.3
323.37 K, 8486.2 kPa | 1275.02 ± 1.3
323.37 K, 8565.3 kPa | 1275.71 ± 1.3
323.37 K, 8644.1 kPa | 1276.5 ± 1.3
323.37 K, 8721.2 kPa | 1277.38 ± 1.3
323.37 K, 8795.7 kPa | 1278.02 ± 1.3
323.37 K, 8871.5 kPa | 1278.77 ± 1.3
323.37 K, 8923.6 kPa | 1279.19 ± 1.3
323.37 K, 9000 kPa | 1279.98 ± 1.3
323.37 K, 9075.8 kPa | 1280.67 ± 1.3
323.37 K, 9128 kPa | 1281.22 ± 1.3
323.37 K, 9181 kPa | 1281.6 ± 1.3
323.37 K, 9257 kPa | 1282.4 ± 1.3
323.37 K, 9330.9 kPa | 1283.02 ± 1.3
323.37 K, 9404.8 kPa | 1283.76 ± 1.3
323.37 K, 9479.6 kPa | 1284.46 ± 1.3
323.37 K, 9533 kPa | 1284.99 ± 1.3
323.37 K, 9609.3 kPa | 1285.65 ± 1.3
323.37 K, 9682.9 kPa | 1286.27 ± 1.3
323.37 K, 9757.3 kPa | 1287.03 ± 1.3
323.37 K, 9833.2 kPa | 1287.72 ± 1.3
323.37 K, 9909.3 kPa | 1288.32 ± 1.3
323.37 K, 9986.3 kPa | 1289.02 ± 1.3
343.18 K, 2257.1 kPa | 1022.11 ± 1.1
343.18 K, 2260.4 kPa | 1022.55 ± 1.1
343.18 K, 2263.3 kPa | 1022.75 ± 1.1
343.18 K, 2269.6 kPa | 1023.31 ± 1.1
343.18 K, 2279.2 kPa | 1024.07 ± 1.1
343.18 K, 2287.2 kPa | 1024.5 ± 1.1
343.18 K, 2297 kPa | 1025.46 ± 1.1
343.18 K, 2306 kPa | 1025.93 ± 1.1
343.18 K, 2314 kPa | 1026.5 ± 1.1

Conditions | vapor or sublimation pressure [kPa]
328.21 K | 1595.1 ± 2.9
333.21 K | 1791.4 ± 3.2
338.18 K | 2007.9 ± 3.6
